The target in this assay is T1, HPK1 (Homo sapiens, UniProt Q92918).
T1 construct: A HiBiT tag was introduced by CRISPR on the N terminus of HPK1 in Jurkat cells; host or cells: Jurkat cells (ATCC TIB-152), monoclonal line with CRISPR knock-in of HiBiT at the endogenous HPK1 locus
Nature of the assay: HPK1 Cellular HiBit Degradation Assay. The format is cell-based. To be noted: HiBiT HPK1 Jurkat cells, 24 hrs; for DC50: concentration at which 50% of HPK1 was remaining, read-out: DC50 Category; for Dmax: Jurkat, maximum degradation vs DMSO vehicle control, read-out: Dmax Category. A digest of the protocol: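 Jurkat cells with CRISPR knock-in N-terminal HiBiT-HPK1 were treated with CTMs (11-point, 3.16-fold, 10 uM to 0.1 nM final) for 24 hrs at 37° C. HiBiT lytic luminescence, with parental Jurkat as background and DMSO as 100%, gave % HPK1 remaining; four-parameter fit yielded DC50 and Dmax (100 minus lowest % remaining).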
(In general: HiBiT is a short tag that completes a luciferase, so light tracks the accessible tagged protein.)

T1 sequence (Q92918 whole entry): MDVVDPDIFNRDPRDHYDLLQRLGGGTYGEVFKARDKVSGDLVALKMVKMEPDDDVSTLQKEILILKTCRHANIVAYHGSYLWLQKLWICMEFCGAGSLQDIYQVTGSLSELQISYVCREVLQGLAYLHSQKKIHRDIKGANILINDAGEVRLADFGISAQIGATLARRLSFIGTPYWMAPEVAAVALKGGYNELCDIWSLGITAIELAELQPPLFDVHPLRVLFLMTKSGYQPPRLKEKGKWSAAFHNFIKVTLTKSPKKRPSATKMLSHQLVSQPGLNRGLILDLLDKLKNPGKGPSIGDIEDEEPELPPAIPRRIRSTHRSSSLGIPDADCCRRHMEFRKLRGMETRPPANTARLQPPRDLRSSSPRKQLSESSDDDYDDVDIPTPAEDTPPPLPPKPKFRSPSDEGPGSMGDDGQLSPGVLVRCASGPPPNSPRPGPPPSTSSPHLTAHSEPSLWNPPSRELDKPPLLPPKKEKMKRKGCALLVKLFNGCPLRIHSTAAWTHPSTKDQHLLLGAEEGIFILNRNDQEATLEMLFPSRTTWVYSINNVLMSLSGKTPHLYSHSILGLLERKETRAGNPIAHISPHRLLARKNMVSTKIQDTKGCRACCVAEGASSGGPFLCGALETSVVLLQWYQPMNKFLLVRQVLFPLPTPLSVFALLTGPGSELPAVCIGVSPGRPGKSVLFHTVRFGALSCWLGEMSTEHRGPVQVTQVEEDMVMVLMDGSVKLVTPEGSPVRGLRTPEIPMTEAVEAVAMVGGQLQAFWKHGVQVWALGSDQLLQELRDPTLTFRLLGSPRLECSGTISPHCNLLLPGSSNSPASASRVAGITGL

Take `CC(C)n1cnc2cc(-c3ccc4c(c3)N([C@H]3C[C@@H](N5CCCCC5)C3)C(=O)C43CCN(C(=O)C4(C)CCN(C(=O)C5CCN(c6ccc(C7CCC(=O)NC7=O)cn6)CC5)CC4)CC3)nc(Oc3ccccc3)c21` (stereo partly drawn) [Example 168, 3-(6-{4-[4-methyl-4-({2-oxo-6-[4-phenoxy-3-(propan-2-yl)-3H-imidazo[4,5-c]pyridin-6-yl]-1-[(1S,3S)-3-(piperidin-1-yl)cyclobutyl]-1,2-dihydrospiro[indole-3,4′-piperidin]-1′-yl}carbonyl)piperidine-1-carbonyl]piperidin-1-yl}pyridin-3-yl)piperidine-2,6-dione]: the DC50 (as a rule, the midpoint of the concentration-degradation curve) was under 100 nM and the Dmax – broadly, the largest share of the target that was removed – is over 85%.
Taken in the same sequence, the figures for `CC(C)Oc1nc(-c2ccc3c(c2)N([C@H]2C[C@@H](N4CCCCC4)C2)C(=O)C32CCN(C(=O)C3(C)CCN(C(=O)C4CCN(c5ccc(C6CCC(=O)NC6=O)cn5)CC4)CC3)CC2)cc2ncn(C(C)C)c12` (stereo partly drawn) [Example 169, 3-(6-{4-[4-methyl-4-({2-oxo-6-[3-(propan-2-yl)-4-(propan-2-yloxy)-3H-imidazo[4,5-c]pyridin-6-yl]-1-[(1S,3S)-3-(piperidin-1-yl)cyclobutyl]-1,2-dihydrospiro[indole-3,4′-piperidin]-1′-yl}carbonyl)piperidine-1-carbonyl]piperidin-1-yl}pyridin-3-yl)piperidine-2,6-dione] were under 100 nM and over 85%.
Taken in the same sequence, the figures for `CC(C)n1cnc2cc(-c3ccc4c(c3)N([C@H]3C[C@@H](N5CCCCC5)C3)C(=O)C43CCN(C(=O)C4(C)CCN(C(=O)C5CCN(c6ccc(C7CCC(=O)NC7=O)cn6)CC5)CC4)CC3)nc(N3CCCC3)c21` (stereo partly drawn) [Example 170, 3-(6-{4-[4-methyl-4-({2-oxo-6-[3-(propan-2-yl)-4-(pyrrolidin-1-yl)-3H-imidazo[4,5-c]pyridin-6-yl]-1-[(1S,3S)-3-(piperidin-1-yl)cyclobutyl]-1,2-dihydrospiro[indole-3,4′-piperidin]-1′-yl}carbonyl)piperidine-1-carbonyl]piperidin-1-yl}pyridin-3-yl)piperidine-2,6-dione] were 100 to 500 nM and 50 to 70%.
Turning to `CC(C)n1cnc2cc(-c3ccc4c(c3)N([C@H]3C[C@@H](N5CCCCC5)C3)C(=O)C43CCN(C(=O)C4(C)CCN(C(=O)C5CCN(c6ccc(C7CCC(=O)NC7=O)cn6)CC5)CC4)CC3)nc(N(C)C3CC3)c21` (stereo partly drawn) [Example 171, 3-[6-(4-{4-[(6-{4-[cyclopropyl(methyl)amino]-3-(propan-2-yl)-3H-imidazo[4,5-c]pyridin-6-yl}-2-oxo-1-[(1S,3S)-3-(piperidin-1-yl)cyclobutyl]-1,2-dihydrospiro[indole-3,4′-piperidin]-1′-yl)carbonyl]-4-methylpiperidine-1-carbonyl}piperidin-1-yl)pyridin-3-yl]piperidine-2,6-dione], the DC50 was in the range of 100 to 500 nM and the Dmax is 70 to 85%.
Take `CC(C(=O)N1CCN(C(=O)C2CCN(c3ccc(C4CCC(=O)NC4=O)cn3)CC2)CC1)N1CCC2(CC1)C(=O)N([C@H]1C[C@@H](N3CCCCC3)C1)c1cc(-c3cc4ncn(C(C)C)c4c(NC4CC4)n3)ccc12` (stereo partly drawn) [Example 172, 3-(6-{4-[4-(2-{6-[4-(cyclopropylamino)-3-(propan-2-yl)-3H-imidazo[4,5-c]pyridin-6-yl]-2-oxo-1-[(1S,3S)-3-(piperidin-1-yl)cyclobutyl]-1,2-dihydrospiro[indole-3,4′-piperidin]-1′-yl}propanoyl)piperazine-1-carbonyl]piperidin-1-yl}pyridin-3-yl)piperidine-2,6-dione]: the DC50 is under 100 nM and the Dmax was over 85%.
In the same order, the values of `CC(C(=O)N1CCN(C(=O)C2CCN(c3cc(C4CCC(=O)NC4=O)ccn3)CC2)CC1)N1CCC2(CC1)C(=O)N([C@H]1C[C@@H](N3CCCCC3)C1)c1cc(-c3cc4ncn(C(C)C)c4c(NC4CC4)n3)ccc12` (stereo partly drawn) [Example 173, 3-(2-{4-[4-(2-{6-[4-(cyclopropylamino)-3-(propan-2-yl)-3H-imidazo[4,5-c]pyridin-6-yl]-2-oxo-1-[(1S,3S)-3-(piperidin-1-yl)cyclobutyl]-1,2-dihydrospiro[indole-3,4′-piperidin]-1′-yl}propanoyl)piperazine-1-carbonyl]piperidin-1-yl}pyridin-4-yl)piperidine-2,6-dione] are 100 to 500 nM and 70 to 85%.
Taken in the same sequence, the figures for `CC(C)n1cnc2cc(-c3ccc4c(c3)N([C@H]3C[C@@H](N5CCCCC5)C3)C(=O)C43CCN(C(=O)C4(C)CCN(C(=O)C5CCN(c6ccc(C7CCC(=O)NC7=O)cn6)CC5)CC4)CC3)nc(N[C@H]3C[C@@H](C#N)C3)c21` (stereo partly drawn) [Example 174, (1S,3S)-3-({6-[1′-(1-{1-[5-(2,6-dioxopiperidin-3-yl)pyridin-2-yl]piperidine-4-carbonyl}-4-methylpiperidine-4-carbonyl)-2-oxo-1-[(1S,3S)-3-(piperidin-1-yl)cyclobutyl]-1,2-dihydrospiro-[indole-3,4′-piperidin]-6-yl]-3-(propan-2-yl)-3H-imidazo[4,5-c]pyridin-4-yl}amino)cyclobutane-1-carbonitrile] were under 100 nM and over 85%.
In the same order, the values of `CC(C)n1cnc2cc(-c3ccc4c(c3)N([C@H]3C[C@@H](N5CCCCC5)C3)C(=O)C43CCN(C(=O)C4(C)CCN(C(=O)C5CCN(c6ccc(C7CCC(=O)NC7=O)cn6)CC5)CC4)CC3)nc(N3CC(C#N)C3)c21` (stereo partly drawn) [Example 175, 1-{6-[1′-(1-{1-[5-(2,6-dioxopiperidin-3-yl)pyridin-2-yl]piperidine-4-carbonyl}-4-methylpipe-ridine-4-carbonyl)-2-oxo-1-[(1S,3S)-3-(piperidin-1-yl)cyclobutyl]-1,2-dihydrospiro[indole-3,4′-pi-peridin]-6-yl]-3-(propan-2-yl)-3H-imidazo[4,5-c]pyridin-4-yl}azetidine-3-carbonitrile] are under 100 nM and 70 to 85%.
Regarding `CC(C)n1cnc2cc(-c3ccc4c(c3)N([C@H]3C[C@@H](N5CCCCC5)C3)C(=O)C43CCN(C(=O)C4(C)CCN(C(=O)C5CCN(c6ccc(C7CCC(=O)NC7=O)cn6)CC5)CC4)CC3)nc(N[C@H]3C[C@H](C#N)C3)c21` (stereo partly drawn) [Example 176, (1R,3R)-3-({6-[1′-(1-{1-[5-(2,6-dioxopiperidin-3-yl)pyridin-2-yl]piperidine-4-carbonyl}-4-methylpiperidine-4-carbonyl)-2-oxo-1-[(1S,3S)-3-(piperidin-1-yl)cyclobutyl]-1,2-dihydrospiro[indole-3,4′-piperidin]-6-yl]-3-(propan-2-yl)-3H-imidazo[4,5-c]pyridin-4-yl}amino)cyclobutane-1-carbonitrile], the DC50 lay within 100 to 500 nM and the Dmax lay within 70 to 85%.
Take `CC(C)n1cnc2cc(-c3ccc4c(c3)N([C@H]3C[C@@H](N5CCCCC5)C3)C(=O)C43CCN(C(=O)C4(C)CCN(C(=O)C5CCN(c6ccc(C7CCC(=O)NC7=O)cn6)CC5)CC4)CC3)nc(NC3CC4(COC4)C3)c21` (stereo partly drawn) [Example 177, 3-(6-{4-[4-methyl-4-({6-[4-({2-oxaspiro[3.3]heptan-6-yl}amino)-3-(propan-2-yl)-3H-imidazo[4,5-c]pyridin-6-yl]-2-oxo-1-[(1S,3S)-3-(piperidin-1-yl)cyclobutyl]-1,2-dihydrospiro[indole-3,4′-piperidin]-1′-yl}carbonyl)piperidine-1-carbonyl]piperidin-1-yl}pyridin-3-yl)piperidine-2,6-dione]: the DC50 is under 100 nM and the Dmax lay in the range of 70 to 85%.
In the same order, the values of `CC(C)n1cnc2cc(-c3ccc4c(c3)N([C@H]3C[C@@H](N5CCCCC5)C3)C(=O)C43CCN(C(=O)C4(C)CCN(C(=O)C5CCN(c6ccc(C7CCC(=O)NC7=O)cn6)CC5)CC4)CC3)nc(OC3CC3)c21` (stereo partly drawn) [Example 178, 3-(6-{4-[4-({6-[4-cyclopropoxy-3-(propan-2-yl)-3H-imidazo[4,5-c]pyridin-6-yl]-2-oxo-1-[(1S,3S)-3-(piperidin-1-yl)cyclobutyl]-1,2-dihydrospiro[indole-3,4′-piperidin]-1′-yl}carbonyl)-4-methylpiperidine-1-carbonyl]piperidin-1-yl}pyridin-3-yl)piperidine-2,6-dione] are under 100 nM and over 85%.
In the same order, the values of `CC(C)n1cnc2cc(-c3ccc4c(c3)N([C@H]3C[C@@H](N5CCCCC5)C3)C(=O)C43CCN(C(=O)C4CCN(C(=O)[C@H]5CC[C@H](n6cc7cc(C8CCC(=O)NC8=O)ccc7n6)CC5)CC4)CC3)nc(NC3CC3)c21` (stereo partly drawn) [Example 179, 3-{2-[(1R,4R)-4-[4-({6-[4-(cyclopropylamino)-3-(propan-2-yl)-3H-imidazo[4,5-c]pyridin-6-yl]-2-oxo-1-[(1S,3S)-3-(piperidin-1-yl)cyclobutyl]-1,2-dihydrospiro[indole-3,4′-piperidin]-1′-yl}carbonyl)piperidine-1-carbonyl]cyclohexyl]-2H-indazol-5-yl}piperidine-2,6-dione] are 100 to 500 nM and 70 to 85%.
In the same order, the values of `CC(C)n1cnc2cc(-c3ccc4c(c3)N([C@H]3C[C@@H](N5CCCCC5)C3)C(=O)C43CCN(C(=O)N4CCN(C(=O)C5CCN(c6ccc(C7CCC(=O)NC7=O)cn6)CC5)CC4)CC3)nc(NC3CC3)c21` (stereo partly shown) [Example 180] are under 100 nM and 70 to 85%.
Turning to `CC(C)n1cnc2cc(-c3ccc4c(c3)N([C@H]3C[C@@H](N5CCCCC5)C3)C(=O)C43CCN(C(=O)N4CCC(C(=O)N5CCN(c6ccc(C7CCC(=O)NC7=O)cn6)CC5)CC4)CC3)nc(NC3CC3)c21` (stereo partly drawn) [Example 181, 3-(6-{4-[1-({6-[4-(cyclopropylamino)-3-(propan-2-yl)-3H-imidazo[4,5-c]pyridin-6-yl]-2-oxo-1-[(1S,3S)-3-(piperidin-1-yl)cyclobutyl]-1,2-dihydrospiro[indole-3,4′-piperidin]-1′-yl}carbonyl)piperidine-4-carbonyl]piperazin-1-yl}pyridin-3-yl)piperidine-2,6-dione], the DC50 was in the range of 100 to 500 nM and the Dmax lay in the range of 50 to 70%.

Source of the values: patent US12091426B2, “Bifunctional degraders of hematopoietic progenitor kinase and therapeutic uses thereof” (Nurix Therapeutics, Inc., priority 2021, dated 2024).
